Experimental data published in patent publication US20200275665A1, “PREPARATION COMPRISING AT LEAST ONE CHEMICAL FUNGICIDE AND A MIXTURE COMPRISING AUREOBASIDIUM PULLULANS STRAINS” (Erber Aktiengesellschaft, priority 2017, published 2020).
Several values for one entry are separate records, joined by “and”; a condition that tells them apart may be missing. Equal entries are not always repeated.

Columns and labels:
[1] = tested on: Pezicula malicorticis 160622 (DSM 62715); assay: Apple test (wound inoculation), Pezicula malicorticis 160622; assay type: in vivo; conditions: apples Elstar Fuchshof, 20° C., 16 days; Aureobasidium overall 1×10^7 cells/ml; fludioxonil 0.125 g/l, cyprodinil 0.1875 g/l
Experimental: The effect of the Aureobasidium pullulans strains AP 241 (DSM 32467), AP 268 (DSM 32468), DSM 14940 and DSM 14941 (individually or in combination), together with the chemical fungicides cyprodinil and fludioxonil (individually or in combination), against the fungal plant pathogens Botrytis and Neofabreaea was determined in an apple test. 12 untreated apples of the same cultivar, having a uniform degree of maturity and size, were used for each treatment. Prior to the test, the apples were surface-sterilized for three minutes in 70% ethanol and dried in a clean bench. Four wounds, having a wound diameter of 5 mm, were made at equal distances in each apple in the equatorial plane between the calyx and the stem using a sterile pipette tip. Immediately after the creation of the four artificial wounds, 10 μl of different test solutions (preparations) was applied to each apple. Thereafter, the apples were stored. An area of decay formed around the wounds, the diameter of the area representing a measure of the spread of the infection with the pathogen. For the evaluation, the diameters of the punctures of 0.5 cm each were deducted from the diameter of the decay area.
The 4 test solutions that were each placed in one of the 4 wounds of each apple were: • 1. Pathogen (negative control) • 2. Pathogen and Aureobasidium pullulans (individually or in combination) • 3. Pathogen and chemical fungicide (individually or in combination) • 4. Pathogen and Aureobasidium pullulans (individually or in combination) and chemical fungicide (individually or in combination)
(§1) The effectiveness of the inhibition of the pathogen was calculated for test solutions 2 to 4 from the diameters of the areas of decay, which were measured at the end of the storage period. […]
(§2) According to the Colby formula (S. R. Colby “Calculating synergistic and antagonistic responses of herbicide combinations,” Weeds 15, pages 20 to 22, 1967), expected values (E) of the effect of the combination of Aureobasidium and the chemical fungicide (test solution 4) were calculated from the effectiveness (WG) figures of the individual components in test solutions 2 and 3 according to the following formula: […]
If the measured effectiveness of the combination of the Aureobasidium pullulans strains and the chemical fungicide (test solution 4) is greater than the calculated expected value (E), this is referred to as a synergistic effect (the individual components potentiate each other in an over-additive effect). The synergism factor is a measure of the synergistic effect and was calculated as the quotient from the effectiveness of the combination of the substances or components (test solution 4) and the calculated expected value (E). […]

[2] = tested on: Botrytis cinerea Bc97 (DSM 32469); assay: Apple test (wound inoculation), Botrytis cinerea Bc97; assay type: in vivo; conditions: apples Jonagold Honsel, 20° C., 6 days; Aureobasidium 5×10^6 cells/ml total; fludioxonil 0.125 g/l, cyprodinil 0.1875 g/l
Experimental: The effect of the Aureobasidium pullulans strains AP 241 (DSM 32467), AP 268 (DSM 32468), DSM 14940 and DSM 14941 (individually or in combination), together with the chemical fungicides cyprodinil and fludioxonil (individually or in combination), against the fungal plant pathogens Botrytis and Neofabreaea was determined in an apple test. 12 untreated apples of the same cultivar, having a uniform degree of maturity and size, were used for each treatment. Prior to the test, the apples were surface-sterilized for three minutes in 70% ethanol and dried in a clean bench. Four wounds, having a wound diameter of 5 mm, were made at equal distances in each apple in the equatorial plane between the calyx and the stem using a sterile pipette tip. […]
as §1, §2

## Cc1cc(C2CC2)nc(Nc2ccccc2)n1 [cyprodinil]
[1]
  Effectiveness (decrease in diameter of decay area vs. negative control): 17.0%
  Mean diameter of decay areas: 1.61 cm
[2]
  Mean diameter of decay areas: 2.80 cm and 3.14 cm and 2.21 cm and 2.52 cm and 3.63 cm and 3.51 cm and 3.38 cm

## N#Cc1c[nH]cc1-c1cccc2c1OC(F)(F)O2 [fludioxonil]
[1]
  Effectiveness (decrease in diameter of decay area vs. negative control): −3.8%
  Mean diameter of decay areas: 1.91 cm
